Data as given in EP1143955B1, “A COMBINATION OF FBPase INHIBITORS AND INSULIN SENSITIZERS FOR THE TREATMENT OF DIABETES” (priority 1998, dated 2000).

Assays:
[1] = system: Rat Hepatocytes; assay: Inhibition of Gluconeogenesis in Rat Hepatocytes (Example C); type: cell-based; details: glucose production from 10 mM lactate, 1 mM pyruvate, 1 hour, hepatocytes from fed Sprague-Dawley rats
Protocol: Hepatocytes (75 mg wet weight/ml) were incubated in 1 ml Krebs-bicarbonate buffer containing 10 mM Lactate, 1 mM pyruvate, 1 mg/ml BSA, and test compound concentrations from 0 to 500 µM. […] After 1 hour, an aliquot (0.25 ml) was removed, transferred to an Eppendorf tube and centrifuged. 50 µl of supernatant was then assayed for glucose content using a Sigma Glucose Oxidase kit as per the manufacturer's instructions.

[2] = system: db/db mouse; assay: Combination treatment with Troglitazone and Compound G in the db/db mouse - blood glucose (Example S); type: in vivo; details: db/db mice, Troglitazone 0.1%, mean ± SEM
Description: Treatment was for 18 days. […] Results are considered significant with p<0.05.

[3] = system: db/db mouse; assay: Combination treatment with Troglitazone and Compound A in the db/db mouse - blood glucose (Example T); type: in vivo, C57BL/KsJ-db/db mice; details: for Blood glucose, mg/dl (8 am day 4): fed
Description: Male C57BL/KsJ-db/db mice were obtained from Jackson Laboratories (Bar Harbor, Maine) at 9 weeks of age. […] Group 1 (controls) received powdered Purina 5008 chow alone. […] This dose is reported to elicit the maximal hypoglycemic effect of Troglitazone in this model (Fujiwara et al 1995). […] Results are considered significant with p<0.05.

[4] = system: ZDF rat; assay: Combination treatment in the ZDF rat - plasma triglycerides (Example O); type: in vivo, Zucker Diabetic Fatty (ZDF) rat; details: for Plasma Triglycerides, mg/dl (Mean ± SEM): final day of treatment
Description: Results are considered significant with p<0.05.

[5] = system: ZDF rat; assay: Combination treatment in the ZDF rat - plasma insulin (Example P); type: in vivo, Zucker Diabetic Fatty (ZDF) rat; details: Troglitazone-Compound G study, final day of treatment
Protocol: Plasma was prepared by centrifugation and insulin levels then measured by means of an enzyme-linked immunoassay kit according to the instructions of the manufacturer (Amersham Life Sciences). […] Results are considered significant with p<0.05.

[6] = system: ZDF rat; assay: Combination treatment with Troglitazone and Compound G or Compound J in the ZDF rat - blood glucose (Example N); type: in vivo, Zucker Diabetic Fatty (ZDF) rat; details: for Blood Glucose, mg/dl Day 0: Day 0 (baseline); for Blood Glucose, mg/dl Day 21: Compound J 0.4% food admixture for 21 days
Protocol: (§1) At 11 weeks of age, animals with blood glucose >500 mg/dl were selected and divided into 4 treatment groups (n=8/group). […] Blood glucose levels were measured in tail vein samples by means of a HemoCue glucose analyzer (HemoCue Inc., Mission Viejo, CA). Values are expressed as the mean plus or minus the standard error of the mean. Differences between groups were evaluated by analysis of variance with the Tukey-Kramer post hoc test.

[7] = system: type 2 diabetics; details: most common side-effect; cited from earlier work
[8] = Oral bioavailability determination by the urinary excretion method in the rat (Example G); type: in vivo, Sprague Dawley rats
Protocol: The oral bioavailability of prodrugs and parent compounds was determined by the urinary excretion method in the rat. Prodrugs were dissolved in 10% ethanol/90% polyethylene glycol (mw 400) and administered by oral gavage at doses of 10 to 40 mg/kg parent compound equivalents to 6-hour fasted, Sprague Dawley rats (220-240 g). Parent compounds were typically dissolved in deionized water, neutralized with sodium hydroxide, and then administered orally at 10-40 mg/kg or intravenously at ~10 mg/kg. The rats were subsequently placed in metabolic cages and urine was collected for 24 hours. The quantity of parent compound excreted into urine was determined by HPLC analysis as described in Example F. Analysis was performed as described in Example F. For prodrugs, the percentage oral bioavailability was estimated by comparison of the recovery in urine of the parent compound generated from the prodrug administered orally, to that recovered in urine following intravenous administration of the corresponding parent compound. For parent compounds, the percentage oral bioavailability was estimated by comparison of the recovery in urine of the parent compound when administered orally to that recovered when administered intravenously.

[9] = system: ZDF rat; assay: Combination treatment in the ZDF rat - blood lactate (Example Q); design: species or system Zucker Diabetic Fatty (ZDF) rat; details: in vivo
Description: Blood samples were taken from the tail vein on days 0, 3, 7, 10 and 14 of the Troglitazone-Compound G combination study and on days 0,7,14, and 21 of the Troglitazone-Compound J combination study (study protocols are described in Example N).

[10] = target: rat liver FBPase; assay: Inhibition of rat liver FBPase (Example B); type: biochemical; details: assayed as for human liver FBPase
Protocol: (§2) Mouse liver FBPase was obtained by homogenizing freshly isolated mouse liver in 100 mM Tris-HCl buffer, pH 7.4, containing 1 mM EGTA, and 10% glycerol. […] This fraction was redissolved in the homogenization buffer and desalted on a PD-10 gel filtration column (Biorad) eluted with same. This partially purified fraction was used for enzyme assays.

[11] = target: Mouse liver FBPase; assay: Inhibition of mouse liver FBPase (Example B); type: biochemical; details: partially purified mouse liver FBPase, assayed as for human liver FBPase
Protocol: as §2

[12] = target: human liver FBPase; assay: Inhibition of Human Liver FBPase (Example A); type: biochemical; details: […] fructose 1,6-bisphosphate, 37°C
[13] = system: ZDF rat; assay: Combination treatment with Rosiglitazone and Compound G in the ZDF rat - blood glucose (Example R); type: in vivo, Zucker Diabetic Fatty (ZDF) rat; details: Rosiglitazone 0.0045%, Compound G 0.2% food admixture, 25 days
Protocol: as §1

[14] = system: Normal Fasted Rats; assay: Glucose lowering after intraperitoneal administration to normal fasted rats (Example F); type: in vivo; details: 18-hour fasted Sprague-Dawley rats, one hour post injection
Protocol: Sprague-Dawley rats (250-300 g) were fasted for 18 hours and then dosed intraperitoneally either with saline or FBPase inhibitor. The vehicle used for drug administration was 10 mM bicarbonate. One hour post injection, rats were anesthetized with halothane, and liver and blood samples were taken and processed as described in Example E. The neutralized liver extracts were analyzed for FBPase inhibitor content by HPLC. A reverse phase YMC ODS AQ column ([…]) was used and eluted with a gradient from 10 mM sodium phosphate pH 5.5 to 75% acetonitrile. Absorbance was monitored at 310 nm. Glucose was measured in the blood sample as described in Example C. Plasma was prepared by centrifugation and extracted by addition of methanol to 60% (v/v). The methanolic extract was clarified by centrifugation and filtration and then analyzed by HPLC as described above.

[15] = system: Rat Hepatocytes; assay: Inhibition of glucose production and elevation of fructose-1,6-bisphosphate levels in rat hepatocytes (Example D); type: cell-based; details: isolated rat hepatocytes
Protocol: Hepatocytes were prepared from fed Sprague-Dawley rats (250-300 g) according to the procedure of Berry and Friend (Berry, M.N., Friend, D.S., 1969, J. Cell. Biol. 43, 506-520) as modified by Groen (Groen, A.K., Sips, H.J., Vervoom, R.C., Tager, J.M. , 1982, Eur. J. Biochem. 122, 87-93). Hepatocytes (75 mg wet weight/ml) were incubated in 1 ml Krebs-bicarbonate buffer containing 10 mM Lactate, 1 mM pyruvate, 1 mg/ml BSA, and test compound concentrations from 0 to 500 µM. Incubations were carried out in a 95% oxygen, 5% carbon dioxide atmosphere in closed, 50-ml Falcon tubes submerged in a rapidly shaking water bath (37°C). After 1 hour, an aliquot (0.25 ml) was removed, transferred to an Eppendorf tube and centrifuged. 50 µl of supernatant was then assayed for glucose content using a Sigma Glucose Oxidase kit as per the manufacturer's instructions.
Rat hepatocytes were isolated and incubated as described in Example C. Cell extracts, were analyzed for glucose content as described in Example C, and also for fructose 1,6-bisphosphate. Fructose 1,6-bisphosphate was assayed spectrophotometrically by coupling its enzymatic conversion to glycerol 3-phosphate to the oxidation of NADH, which was monitored at 340 nm. […] After a 30 minute preincubation at 37°C, 1 unit/ml of aldolase was added and the change in absorbance measured until a stable value was obtained. […]

[16] = Troglitazone-Compound J study, Troglitazone 0.2%, Compound J 0.4% food admixture, mean ± SEM
[17] = Troglitazone-Compound J study, Troglitazone 0.2%, mean ± SEM

Cc1c(C)c2c(c(C)c1O)CCC(C)(COc1ccc(CC3SC(=O)NC3=O)cc1)O2 (centres unmarked) [Troglitazone]
IC50 ([1]; Rattus norvegicus, Hepatocyte): > 100000 nM | Blood Glucose, mg/dl Day 0 ([2]; Day 0 (baseline), Compound G 0.4% food admixture): 710 ± 44 mg/dL | Blood Glucose, mg/dl Day 18 ([2]; Compound G 0.4% food admixture for 18 days): 509 ± 70 mg/dL | Blood glucose, mg/dl 2 pm, day 7 ([3]; 6 hours post second dose of Compound A 250 mg/kg (Group 3) or vehicle (Group 2), food withheld): 195 ± 12.1 mg/dL | Blood glucose, mg/dl (8 am day 4) ([3]; Group 2, Troglitazone 0.1% admixture): 240 ± 21.3 mg/dL | Blood glucose, mg/dl (8 am day 4) ([3]; Group 3, Troglitazone 0.1% admixture, before the first dose of Compound A): 237.5 ± 18.5 mg/dL | Blood glucose, mg/dl (5 pm day 4) ([3]; nine hours after single oral dose of Compound A 250 mg/kg (Group 3) or vehicle (Group 2), Troglitazone 0.1% admixture): 232.5 ± 17 mg/dL | Plasma Triglycerides, mg/dl (Mean ± SEM) ([4]; Troglitazone-Compound G study): 131 ± 16 mg/dL | Plasma Triglycerides, mg/dl (Mean ± SEM) ([4]; Troglitazone-Compound J study): 249 ± 60 mg/dL | Plasma Insulin, ng/ml (Mean ± SEM) [5]: 3.61 ± 1.03 ng/mL | Blood Glucose, mg/dl Day 0 ([6]; Troglitazone-Compound G study, drugs as 0.2% food admixtures, mean ± SEM, n=8/group): 655 ± 33 mg/dL | Blood Glucose, mg/dl Day 14 ([6]; Troglitazone-Compound G study, drugs as 0.2% food admixtures for 15 days, mean ± SEM): 431 ± 73 mg/dL | Blood Glucose, mg/dl Day 0 [6, 16]: 669 ± 23 mg/dL | Blood Glucose, mg/dl Day 21 [6, 17]: 514 ± 135 mg/dL | elevation of liver enzymes (hepatotoxicity) [7]: 1 % of patients

CCOC(=O)[C@H](C)NP(=O)(N[C@@H](C)C(=O)OCC)c1ccc(-c2nc(N)sc2CC(C)C)o1 [Compound J, 2-Amino-5-isobutyl-4-{2-[5-(N,N'-bis((S)-1-ethoxycarbonyl)ethyl)phosphonamido]furanyl}thiazole]
Oral bioavailability, % ([8]; rat, in vivo, po, 24 h): 21% | blood lactate typically elevated over baseline [9]: ~ 2 fold | maximal blood lactate elevations over baseline [9]: 3 fold | Plasma Triglycerides, mg/dl (Mean ± SEM) ([4]; Troglitazone-Compound J study): 759 ± 76 mg/dL | elevation of plasma triglycerides ([4]; monotherapy vs control, ZDF rat): ~2 fold | Blood Glucose, mg/dl Day 0 [6, 16]: 674 ± 20 mg/dL | Blood Glucose, mg/dl Day 21 [6, 17]: 452 ± 40 mg/dL | blood glucose lowering in pilot studies (dose selection) ([6]; ZDF rat, food admixture, pilot studies): a trend (not significant) towards more pronounced blood glucose lowering at 0.4% than at 0.2%

Nc1ncnc2c1ncn2[C@@H]1O[C@H](COP(=O)(O)O)[C@@H](O)[C@H]1O [AMP]
IC50 [10]: 25000 nM | IC50 [11]: 15000 nM | IC50 [12]: 1300 nM

CC(C)Cc1sc(N)nc1-c1ccc(P(=O)(N[C@@H](C)C(=O)OCc2ccccc2)N[C@@H](C)C(=O)OCc2ccccc2)o1 [Compound K, 2-Amino-5-isobutyl-4-[2-(5-N,N-bis(L-alanine acid dibenzyl ester)phosphonoamido)furanyl]thiazole]
IC50 [1]: 2100 nM

CN(CCOc1ccc(CC2SC(=O)NC2=O)cc1)c1ccccn1 (centres unmarked) [Rosiglitazone]
Responders (rats whose blood glucose levels were lower on day 25 than on day 0) [13]: 6/10

CCc1cc(F)c(N)c2nc(-c3ccc(P(=O)(O)O)o3)n(CC(C)C)c12 [Compound E]
Glucose Lowering, % [14]: 44.4% | intracellular fructose 1,6-bisphosphate [15]: dose-dependent elevation of intracellular fructose 1,6-bisphosphate

CSc1nc(-c2ccc(P(=O)(O)O)o2)c(CC(C)C)s1 [Compound H, 2-Methylthio-5-isobutyl-4-[2-(5-phosphono)furanyl]thiazole]
IC50 [10]: 175 nM | Oral bioavailability, % ([8]; estimated, urinary excretion of parent compound over 24 hours, oral 10-40 mg/kg vs intravenous ~10 mg/kg, 6-hour fasted rats): 4%
